Data reported in patent publication US20230212163A1, “2-(HET)ARYL-SUBSTITUTED CONDENSED HETEROCYCLIC DERIVATIVES AS PEST CONTROL AGENTS” (Bayer Aktiengesellschaft, priority 2020, published 2023).

Tests used:
Assay type in all cases: in vivo
[1] = system: Spodoptera frugiperda; assay: Spodoptera frugiperda spray test (maize leaf discs); conditions: Spodoptera frugiperda, foliar, 168 h, application rate 100 g/ha, after 7 days
Protocol: [table] To produce a suitable active compound formulation, 1 part by weight of active compound is dissolved using the stated parts by weight of solvent and made up with water containing an emulsifier concentration of 1000 ppm until the desired concentration is attained. To produce further test concentrations, the formulation is diluted with emulsifier-containing water. Leaf discs of maize (Zea mays) are sprayed with an active compound formulation of the desired concentration and, after drying, populated with caterpillars of the fall armyworm (Spodoptera frugiperda). After 7 days, the efficacy in % is determined. 100% means that all the caterpillars have been killed; 0% means that no caterpillar has been killed.

[2] = system: Diabrotica balteata; assay: Diabrotica balteata spray test; conditions: Diabrotica balteata, 168 h, after 7 days; for pest or weed control at 20 g/ha: application rate 20 g/ha; for pest or weed control at 100 g/ha: application rate 100 g/ha; for pest or weed control at 500 g/ha: application rate 500 g/ha (=160 μg/cavity)
Protocol: [table] To produce a suitable active compound formulation, 1 part by weight of active compound is dissolved using the stated parts by weight of solvent and made up with water containing an emulsifier concentration of 1000 ppm until the desired concentration is attained. To produce further test concentrations, the formulation is diluted with emulsifier-containing water. Pre-swollen wheat grains (Triticum aestivum) are incubated in a multiwell plate filled with agar and a little water for one day (5 seed grains per cavity). The germinated wheat grains are sprayed with an active compound formulation of the desired concentration. Subsequently, each cavity is infected with 10-20 beetle larvae of Diabrotica balteata. After 7 days, the efficacy in % is determined. 100% means that all wheat plants have grown as in the untreated, uninfected control; 0% means that no wheat plant has grown.

[3] = system: Nezara viridula; assay: Nezara viridula spray test; conditions: Nezara viridula, 96 h, application rate 500 g/ha, after 4 days
Protocol: [table] To produce a suitable active compound formulation, 1 part by weight of active compound is dissolved using the stated parts by weight of solvent and made up with water containing an emulsifier concentration of 1000 ppm until the desired concentration is attained. To produce further test concentrations, the formulation is diluted with emulsifier-containing water. Barley plants (Hordeum vulgare) are sprayed with an active compound formulation of the desired concentration and are infected with larvae of the Southern green shield bug (Nezara viridula). After 4 days, the efficacy in % is determined. 100% means that all of the shield bugs have been killed; 0% means that none of the shield bugs have been killed.

Row | SMILES | pest or weed control at 100 g/ha [1] [%] | pest or weed control at 20 g/ha [2] [%] | pest or weed control at 100 g/ha [2] [%] | pest or weed control at 500 g/ha ([2]; read-out: efficacy) [%] | pest or weed control at 500 g/ha [3] [%] | pest or weed control at 31.25 g/ha ([2]; application rate 31.25 g/ha (=10 μg/cavity), read-out: efficacy) [%] | pest or weed control at 125 g/ha ([2]; application rate 125 g/ha (=40 μg/cavity), read-out: efficacy) [%]
1 | CCS(=O)(=O)c1ccc(-n2ncn(-c3cccc(Cl)c3)c2=O)nc1-c1nc2cc(S(=O)(=O)C(F)(F)F)ccc2o1 [Example I-13] | 100 | 100 | 100 | 100 | – | – | –
2 | CCS(=O)(=O)c1ccc(-n2ncn(-c3ccc(Br)cc3)c2=O)nc1-c1nc2cc(S(=O)(=O)C(F)(F)Cl)ccc2o1 [Example I-09] | 100 | 80 | – | – | – | – | –
3 | CCS(=O)(=O)c1ccc(-n2ncn(-c3cccc(Br)c3)c2=O)nc1-c1nc2cc(C(F)(F)C(F)(F)F)ccc2o1 [Example I-44] | 100 | 80 | 100 | – | 100 | – | –
4 | CCS(=O)(=O)c1ccc(-n2ncn(-c3ccc(F)cc3)c2=O)nc1-c1nc2cc(S(=O)(=O)C(F)(F)Cl)ccc2o1 [Example I-07] | 100 | – | – | 100 | – | 100 | 100
5 | CCS(=O)(=O)c1ccc(-n2ncn(C3CC3C(F)(F)F)c2=O)nc1-c1nc2cc(S(=O)(=O)C(F)(F)F)ccc2o1 (stereo not drawn) [Example I-39] | 100 | – | 100 | – | 100 | – | –
6 | CCS(=O)(=O)c1ccc(-n2ncn(-c3ccc(Br)cc3)c2=O)nc1-c1nc2cc(C(F)(F)C(F)(F)F)ccc2o1 [Example I-48] | 100 | – | 100 | – | – | – | –
7 | CCS(=O)(=O)c1ccc(-n2ncn(-c3ccc(C#N)cc3)c2=O)nc1-c1nc2cc(S(=O)(=O)C(F)(F)Cl)ccc2o1 [Example I-10] | – | 80 | 100 | 100 | – | – | –
8 | CCS(=O)(=O)c1ccc(-n2ncn(-c3ccc(Br)cc3)c2=O)nc1-c1nc2cc(OC(F)(F)C(F)(F)F)ccc2o1 [Example I-23] | 100 | – | 100 | – | – | – | –
9 | CCS(=O)(=O)c1ccc(-n2ncn(-c3ccc(C#N)c(Cl)c3)c2=O)nc1-c1nc2cc(S(=O)(=O)C(F)(F)F)ccc2o1 [Example I-28] | 100 | 100 | – | – | – | – | –
10 | CCS(=O)(=O)c1ccc(-n2ncn(-c3ccc(Cl)c(Br)c3)c2=O)nc1-c1nc2cc(S(=O)(=O)C(F)(F)F)ccc2o1 [Example I-19] | 100 | 100 | 100 | – | – | – | –
11 | CCS(=O)(=O)c1ccc(-n2ncn(C3CC3)c2=O)nc1-c1nc2cc(OC(F)(F)C(F)(F)F)ccc2o1 [Example I-49] | 100 | 100 | 80 | – | – | – | –
12 | CCS(=O)(=O)c1ccc(-n2ncn(-c3ccc(F)cc3)c2=O)nc1-c1nc2cc(OC(F)(F)C(F)(F)F)ccc2o1 [Example I-22] | 100 | 100 | 100 | – | – | – | –
13 | CCS(=O)(=O)c1ccc(-n2ncn(-c3ccc(Cl)cc3)c2=O)nc1-c1nc2cc(S(=O)(=O)C(F)(F)Cl)ccc2o1 [Example I-08] | 100 | 100 | 80 | 100 | – | – | –
14 | CCS(=O)(=O)c1ccc(-n2ccn(-c3cccc(C4(C#N)CC4)c3)c2=O)nc1-c1nc2cc(C(F)(F)C(F)(F)F)ccc2o1 [Example I-54] | 100 | 100 | 100 | – | – | – | –
15 | CCS(=O)(=O)c1ccc(-n2ncn(-c3cccc(Cl)c3)c2=O)nc1-c1nc2cc(C(F)(F)C(F)(F)F)ccc2o1 [Example I-46] | 100 | 100 | 80 | – | 90 | – | –
16 | CCS(=O)(=O)c1ccc(-n2ncn(-c3ccc(F)cc3)c2=O)nc1-c1nc2cc(C(F)(F)C(F)(F)F)ccc2o1 [Example I-56] | 100 | 100 | 100 | – | 100 | – | –
17 | CCS(=O)(=O)c1ccc(-n2ncn(-c3ccc(C4(C#N)CC4)cc3)c2=O)nc1-c1nc2cc(S(=O)(=O)C(F)(F)F)ccc2o1 [Example I-17] | – | 100 | 100 | 100 | – | – | –
18 | CCS(=O)(=O)c1ccc(-n2ncn(C3CCCC3)c2=O)nc1-c1nc2cc(C(F)(F)C(F)(F)F)ccc2o1 [Example I-38] | 100 | – | – | – | – | – | –

Row | SMILES | pest or weed control at 100 g/ha [1] [%] | pest or weed control at 20 g/ha [2] [%] | pest or weed control at 100 g/ha [2] [%] | pest or weed control at 500 g/ha ([2]; read-out: efficacy) [%] | pest or weed control at 500 g/ha [3] [%] | pest or weed control at 31.25 g/ha ([2]; application rate 31.25 g/ha (=10 μg/cavity), read-out: efficacy) [%] | pest or weed control at 125 g/ha ([2]; application rate 125 g/ha (=40 μg/cavity), read-out: efficacy) [%]
19 | CCS(=O)(=O)c1ccc(-n2ncn(-c3ccc(Cl)cc3)c2=O)cc1-c1nc2cc(Br)ccc2o1 [Example I-53] | 100 | – | 100 | – | – | – | –
20 | CCS(=O)(=O)c1ccc(-n2ncn(-c3cccc(Br)c3)c2=O)nc1-c1nc2cc(S(=O)(=O)C(F)(F)F)ccc2o1 [Example I-15] | 100 | 100 | 100 | 100 | – | – | –
21 | CCS(=O)(=O)c1ccc(-n2ncn(C3CC3)c2=O)nc1-c1nc2cc(C(F)(F)C(F)(F)F)ccc2o1 [Example I-50] | 100 | 100 | 100 | – | – | – | –
22 | CCS(=O)(=O)c1ccc(-n2ncn(-c3ccc(Cl)cc3)c2=O)nc1-c1nc2cc(OC(F)(F)C(F)(F)F)ccc2o1 [Example I-21] | 100 | – | 100 | – | – | – | –
23 | CCS(=O)(=O)c1ccc(-n2ncn(-c3ccc(F)cn3)c2=O)nc1-c1nc2cc(S(=O)(=O)C(F)(F)F)ccc2o1 [Example I-55] | 100 | – | 100 | – | – | – | –
24 | CCS(=O)(=O)c1ccc(-n2ncn(-c3cccc(Br)c3)c2=O)nc1-c1nc2cc(OC(F)(F)C(F)(F)F)ccc2o1 [Example I-26] | 100 | 100 | 100 | – | – | – | –
25 | CCS(=O)(=O)c1ccc(-n2ncn(-c3ccc(I)cc3)c2=O)nc1-c1nc2cc(S(=O)(=O)C(F)(F)F)ccc2o1 [Example I-12] | 100 | 100 | 100 | 100 | – | – | –
26 | CCS(=O)(=O)c1ccc(-n2ncn(-c3cccc(C4(C#N)CC4)c3)c2=O)nc1-c1nc2cc(OC(F)(F)C(F)(F)F)ccc2o1 [Example I-31] | 100 | 100 | – | – | – | – | –
27 | CCS(=O)(=O)c1ccc(-n2ncn(-c3ccc(F)cc3)c2=O)nc1-c1nc2cc(C(F)(F)F)ncc2o1 [Example I-35] | – | – | – | – | 100 | – | –
28 | CCS(=O)(=O)c1ccc(-n2ncn(-c3cccc(F)c3)c2=O)nc1-c1nc2cc(OC(F)(F)C(F)(F)F)ccc2o1 [Example I-24] | 100 | 100 | 100 | – | – | – | –
29 | CCS(=O)(=O)c1ccc(-n2ncn(-c3ccc(F)cc3)c2=O)nc1-c1nc2cc(C(F)(F)F)ccc2o1 [Example I-36] | – | – | – | – | 100 | – | –
30 | CCS(=O)(=O)c1ccc(-n2ncn(-c3ccc(Br)c(Cl)c3)c2=O)nc1-c1nc2cc(S(=O)(=O)C(F)(F)F)ccc2o1 [Example I-20] | 100 | 100 | 100 | – | – | – | –
31 | CCS(=O)(=O)c1ccc(-n2ncn(-c3cncc(F)c3)c2=O)nc1-c1nc2cc(S(=O)(=O)C(F)(F)F)ccc2o1 [Example I-40] | 100 | – | 100 | – | – | – | –
32 | CCS(=O)(=O)c1ccc(-n2ncn(-c3ccc(I)cc3)c2=O)nc1-c1nc2cc(S(=O)(=O)C(F)(F)Cl)ccc2o1 [Example I-11] | 100 | – | 100 | 100 | – | – | –
33 | CCS(=O)(=O)c1ccc(-n2ncn(-c3cccc(Cl)c3)c2=O)nc1-c1nc2cc(OC(F)(F)C(F)(F)F)ccc2o1 [Example I-25] | 100 | 100 | 100 | – | – | – | –
34 | CCS(=O)(=O)c1ccc(-n2ncn(-c3cccc(C#N)c3)c2=O)nc1-c1nc2cc(OC(F)(F)C(F)(F)F)ccc2o1 [Example I-30] | 100 | 100 | 100 | – | – | – | –
35 | CCS(=O)(=O)c1ccc(-n2ncn(-c3ccc(F)cc3)c2=O)nc1-c1nc2cc(OC(F)(F)F)ccc2o1 [Example I-33] | – | – | – | – | 100 | – | –
